Source: patent US8501683B2, “Cycloundecadepsipeptide compounds and use of said compounds as a medicament” (priority 2008, dated 2013)
Square brackets hold non-standard residues; d marks the D form. Peptide text beside a SMILES is read from it. MeBmt = C/C=C/C[C@@H](C)[C@@H](O)[C@H](NC)C(=O)O; NEtVal = CCN[C@H](C(=O)O)C(C)C; NMeL = CN[C@@H](CC(C)C)C(=O)O; NMeV = CN[C@H](C(=O)O)C(C)C; dHiv = CC(C)[C@@H](O)C(=O)O; NMeA = CN[C@@H](C)C(=O)O; dNMeA = CN[C@H](C)C(=O)O; Abu = CC[C@H](N)C(=O)O

Assays:
[1] = system: hepatitis C virus genotype 1b Con1 replicon; assay: HCV replicon assay, replicon RNA by RT-qPCR in Huh 9-13 cells; assay type: cell-based; details: 50% inhibition of HCV replicon replication, 3 dose-response curves
Experimental: For the evaluation of antiviral effects, assay medium was aspirated and the plates with dry monolayer were stored at −80° C. awaiting extraction. Following thawing of the plates at room temperature, the cell monolayer was lysed with 100 μl of cell-to-cDNA lysis buffer (Invitrogen). Lysis of the cells was allowed to proceed for 10 min at room temperature after which all liquid was transferred to a PCR plate (Axygen). The PCR plate was incubated for 15 min at 75° C. […] The lysate was diluted 1:2 with RNase/DNase-free water, after which 5 μl was transferred to the real-time PCR plate (Applied Biosystems).
Replicon RNA content was quantified using a real-time quantitative one-step RT-PCR method (RT-qPCR): Low Rox One-Step RT-qPCR master mix, Abgene). […] The fluorogenic probe was 5′-[sequence]-3′. The analysis of the samples were performed using a SDS7500F (Applied Biosystems, standard thermocycling profile: 30 min at 48° C., 10 min at 95° C., 40 cycles of 15 sec at 95° C. and 1 min at 60° C.) after which replicon RNA quantities were converted to percentage of untreated controls.

[2] = target: bile salt export pump (BSEP) (Homo sapiens, UniProt O95342); details: for BSEP fold Debio 025: IC50 ratio compared to Debio 025
bile salt export pump (BSEP), sequence (O95342 whole entry): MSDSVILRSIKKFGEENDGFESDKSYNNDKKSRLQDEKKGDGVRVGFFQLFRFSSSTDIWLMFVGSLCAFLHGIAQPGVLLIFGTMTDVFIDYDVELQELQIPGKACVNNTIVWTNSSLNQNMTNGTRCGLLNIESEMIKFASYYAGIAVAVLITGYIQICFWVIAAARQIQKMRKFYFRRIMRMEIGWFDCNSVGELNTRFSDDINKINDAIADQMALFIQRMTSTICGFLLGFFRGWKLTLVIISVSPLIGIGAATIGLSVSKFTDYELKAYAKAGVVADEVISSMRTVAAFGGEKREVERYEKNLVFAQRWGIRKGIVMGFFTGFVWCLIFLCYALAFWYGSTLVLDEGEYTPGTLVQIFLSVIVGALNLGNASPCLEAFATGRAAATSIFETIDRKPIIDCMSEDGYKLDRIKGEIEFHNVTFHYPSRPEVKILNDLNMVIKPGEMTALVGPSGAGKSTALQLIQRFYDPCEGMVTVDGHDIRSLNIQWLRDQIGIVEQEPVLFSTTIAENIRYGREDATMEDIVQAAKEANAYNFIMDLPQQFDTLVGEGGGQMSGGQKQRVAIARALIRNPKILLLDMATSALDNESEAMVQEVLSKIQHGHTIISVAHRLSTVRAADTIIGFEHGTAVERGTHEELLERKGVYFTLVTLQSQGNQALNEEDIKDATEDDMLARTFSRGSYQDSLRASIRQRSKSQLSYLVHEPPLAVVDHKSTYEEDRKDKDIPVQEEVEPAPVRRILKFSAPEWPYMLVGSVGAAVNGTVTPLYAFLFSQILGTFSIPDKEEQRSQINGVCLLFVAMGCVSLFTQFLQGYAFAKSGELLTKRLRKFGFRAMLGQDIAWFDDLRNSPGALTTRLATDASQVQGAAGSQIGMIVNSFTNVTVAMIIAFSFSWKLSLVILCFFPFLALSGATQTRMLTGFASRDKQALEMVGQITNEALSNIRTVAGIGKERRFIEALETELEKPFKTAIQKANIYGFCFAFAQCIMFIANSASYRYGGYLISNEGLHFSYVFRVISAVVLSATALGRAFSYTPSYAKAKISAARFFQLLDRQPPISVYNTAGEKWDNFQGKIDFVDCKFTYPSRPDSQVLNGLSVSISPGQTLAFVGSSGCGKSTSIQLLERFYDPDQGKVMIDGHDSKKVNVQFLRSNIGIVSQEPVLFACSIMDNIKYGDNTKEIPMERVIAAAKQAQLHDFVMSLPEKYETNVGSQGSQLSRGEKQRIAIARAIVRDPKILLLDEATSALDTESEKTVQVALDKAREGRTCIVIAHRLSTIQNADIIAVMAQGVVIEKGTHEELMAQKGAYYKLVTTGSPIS
Experimental: (§1) To determine whether the cycloundecadepsipeptide compounds of the present invention interact with hepatic transporters, experiments were carried out that compared the concentration-dependent inhibition towards the multidrug resistance associated protein 2 (MRP2), the organic anion transporting polypeptide 1B1 (OATP1B1), the bile salt export pump (BSEP) and the sodium-taurocholate cotransporting polypeptide (NTCP). These transporters are involved in the hepatobiliary circulation of endogenous compounds such as bile salts or bilirubin (for a review, see C. Pauli-Magnus et al, J. Hepatology, 2005, 43:342-357). Some of them also contribute to the elimination of xenobiotics.
(§2) MRP2 and BSEP were expressed by SOLVO Biotechnology in Spodoptera frugiperda (Sf9) ovarian cells, by infecting the insect cells with a recombinant baculovirus. The inhibition of the transport of the radioactive probe substrates (estradiol-17-beta-glucuronide and taurocholate for MRP2 and BSEP, respectively) into inside-out membrane vesicles, containing the transporter, was measured by scintillation counting.
(§3) The IC50 (defined as the concentration required for inhibiting the transport of the probe substrate by 50%, half maximal inhibitory concentration) of the compounds was derived from the concentration-response curve and compared to the IC50 of Debio 025 (IC50 ratio expressed as “fold Debio 025” in the tables).

[3] = target: multidrug resistance associated protein 2 (MRP2) (Homo sapiens, UniProt Q92887)
multidrug resistance associated protein 2 (MRP2), sequence (Q92887 whole entry): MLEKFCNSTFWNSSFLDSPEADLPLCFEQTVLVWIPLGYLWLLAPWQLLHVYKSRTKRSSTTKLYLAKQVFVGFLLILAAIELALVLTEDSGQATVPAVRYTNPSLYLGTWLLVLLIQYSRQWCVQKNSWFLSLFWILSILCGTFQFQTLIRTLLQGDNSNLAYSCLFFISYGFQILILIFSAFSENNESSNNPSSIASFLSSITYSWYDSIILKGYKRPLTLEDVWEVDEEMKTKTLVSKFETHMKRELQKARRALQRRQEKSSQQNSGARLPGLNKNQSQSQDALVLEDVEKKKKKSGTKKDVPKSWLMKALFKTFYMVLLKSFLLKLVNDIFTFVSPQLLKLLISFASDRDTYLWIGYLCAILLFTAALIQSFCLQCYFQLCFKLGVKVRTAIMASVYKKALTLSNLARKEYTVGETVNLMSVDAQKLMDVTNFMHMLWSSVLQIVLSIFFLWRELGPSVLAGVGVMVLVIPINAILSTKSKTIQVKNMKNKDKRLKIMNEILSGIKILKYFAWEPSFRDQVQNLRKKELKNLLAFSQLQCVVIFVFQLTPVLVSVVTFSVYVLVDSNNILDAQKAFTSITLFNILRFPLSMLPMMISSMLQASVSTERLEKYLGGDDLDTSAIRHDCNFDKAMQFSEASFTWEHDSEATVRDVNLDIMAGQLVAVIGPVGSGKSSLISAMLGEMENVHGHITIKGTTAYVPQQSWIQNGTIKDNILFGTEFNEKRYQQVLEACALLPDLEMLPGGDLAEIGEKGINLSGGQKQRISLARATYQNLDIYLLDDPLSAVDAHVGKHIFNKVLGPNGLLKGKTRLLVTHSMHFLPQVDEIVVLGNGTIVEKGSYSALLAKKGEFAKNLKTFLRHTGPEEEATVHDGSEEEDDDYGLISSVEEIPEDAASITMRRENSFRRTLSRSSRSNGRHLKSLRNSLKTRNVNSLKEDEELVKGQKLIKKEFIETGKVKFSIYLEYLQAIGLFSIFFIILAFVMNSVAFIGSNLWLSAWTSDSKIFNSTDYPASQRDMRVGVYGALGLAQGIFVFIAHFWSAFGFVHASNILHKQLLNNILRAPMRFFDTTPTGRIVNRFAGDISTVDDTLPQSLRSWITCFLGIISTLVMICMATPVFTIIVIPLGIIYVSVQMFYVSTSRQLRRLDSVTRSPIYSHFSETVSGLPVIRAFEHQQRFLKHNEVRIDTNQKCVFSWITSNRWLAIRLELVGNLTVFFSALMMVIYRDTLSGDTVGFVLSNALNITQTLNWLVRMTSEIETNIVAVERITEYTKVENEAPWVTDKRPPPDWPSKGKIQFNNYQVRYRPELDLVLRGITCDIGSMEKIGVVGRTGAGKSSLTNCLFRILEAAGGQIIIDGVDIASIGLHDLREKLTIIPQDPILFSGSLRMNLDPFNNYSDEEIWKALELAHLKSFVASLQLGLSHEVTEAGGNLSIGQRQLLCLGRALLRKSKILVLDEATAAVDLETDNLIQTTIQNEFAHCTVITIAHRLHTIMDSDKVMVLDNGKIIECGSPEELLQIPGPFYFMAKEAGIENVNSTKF
Experimental: as §1, §2, §3

[4] = target: organic anion transporting polypeptide 1B1 (OATP1B1) (Homo sapiens, UniProt Q9Y6L6)
organic anion transporting polypeptide 1B1 (OATP1B1), sequence (Q9Y6L6 whole entry): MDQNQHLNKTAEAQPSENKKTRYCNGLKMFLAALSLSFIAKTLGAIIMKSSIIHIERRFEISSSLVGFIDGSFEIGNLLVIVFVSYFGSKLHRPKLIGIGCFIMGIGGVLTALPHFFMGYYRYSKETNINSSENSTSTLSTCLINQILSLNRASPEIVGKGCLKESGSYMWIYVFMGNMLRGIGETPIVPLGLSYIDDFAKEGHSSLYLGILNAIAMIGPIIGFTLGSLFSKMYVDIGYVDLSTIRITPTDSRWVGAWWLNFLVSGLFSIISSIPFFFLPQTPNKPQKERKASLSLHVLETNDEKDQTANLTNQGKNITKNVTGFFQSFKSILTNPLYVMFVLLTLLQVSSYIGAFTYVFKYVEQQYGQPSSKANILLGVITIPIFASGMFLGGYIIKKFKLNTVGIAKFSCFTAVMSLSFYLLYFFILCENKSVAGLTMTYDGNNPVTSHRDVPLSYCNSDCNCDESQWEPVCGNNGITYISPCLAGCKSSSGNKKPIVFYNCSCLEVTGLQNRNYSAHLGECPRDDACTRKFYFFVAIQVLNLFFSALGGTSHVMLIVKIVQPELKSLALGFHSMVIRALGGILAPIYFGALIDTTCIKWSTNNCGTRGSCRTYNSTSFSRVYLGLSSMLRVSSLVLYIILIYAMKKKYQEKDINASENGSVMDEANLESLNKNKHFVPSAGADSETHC
Experimental: as §1
OATP1B1 and NTCP assays were performed with Chinese hamster ovary (CHO) cells expressing these human uptake transporters. The amount of the transported probe substrate (estrone-3-sulfate and taurocholate for OATP1B1 and NTCP, respectively) was determined by liquid scintillation or fluorescent photometry after cell lysis.
as §3

[5] = Cytostatic/cytotoxic effect, MTT (MTS) assay in Huh 9-13 cells; assay type: cell-based; details: human, Huh 9-13 cells containing the HCV genotype 1b Con1 replicon, metabolic activity reduced to 50% of untreated cells
Excerpt: Assays used Huh 9-13 containing the hepatitis C virus genotype 1b Con1 replicon (Lohmann et al. 2001. J. Virol. 75:1437-1449; and Lohmann et al. 1999. Science. 285:110-113). Cells were sub-cultured in cell growth medium DMEM supplemented with 10% FCS, 1% non-essential amino acids, 1% penicillin/streptomycin and 2% Geneticin (Invitrogen) at a ratio of 1:4-1:5 and grown for 3-4 days in 75 cm^2 tissue culture flasks (Techno Plastic Products), were harvested and seeded in assay medium (DMEM, 10% FCS, 1% non-essential amino acids, 1% penicillin/streptomycin) at a density of 5 000 cells/well (100 μl/well) in 96-well tissue culture microtiter plates (Falcon, Beckton Dickinson) for evaluation of cytostatic/cytotoxic and antiviral effect. The microtiter plates were incubated overnight (37° C., 5% CO2, 95-99% relative humidity), yielding a non-confluent cell monolayer.
Cell density and cytostatic effects were estimated in parallel cultures in regular 96-well plates (Beckton-Dickinson) using the MTT assay (CellTiter 96 AQueous Non-Radioactive Cell Proliferation Assay, Promega). In this assay, 3-(4,5-dimethyl-thiazol-2-yl)-5-(3-carboxymethoxy-phenyl)-2-(4-sulfophenyl)-2H-tetrazolium (MTS) is bioreduced to a formazan that is quantified at 498 nm in a plate reader. Formazan production is directly correlated with number of life cells. Absorbance was measured at a wavelength of 498 nm (Safire^2, Tecan) and optical densities (OD values) were converted to percentage of untreated controls.
The compounds were dissolved in DMSO at a concentration of 4 mmole/L. Stock solutions were immediately used to set up the experiments. The compounds were tested at 24 different concentrations ranging from 0.0001 μmole/L to 100 μmole/L. The highest concentration of DMSO in the assay was determined to be 2.5% (at 100 μM final concentration of the compound). During the assay setup, the DMSO percentage decreased concomitantly with decrease in concentration of the compound.
The EC50 (value derived from the dose-response curve) represents the concentration at which 50% inhibition of viral replication is observed. The CC50 (value derived from the dose-response curve) represents the concentration at which the metabolic activity of the cells is reduced to 50% of the metabolic activity of untreated cells.
Results from these experiments permitted calculation of EC50±SD (standard deviation or Std. Dev.), which is the effective concentration required to inhibit HCV replicon replication by 50%, and of CC50±SD (whenever possible), which is the concentration required that inhibits the proliferation of exponentially growing cells by 50%. EC50 and CC50±SD values were calculated respectively as the median of all the EC50, or CC50 values derived from the 3 individual dose-response curves. The selectivity index (SI), indicative of the therapeutic window of the compound was calculated as the ratio between CC50 and EC50.

[6] = system: Concanavalin-A-induced T-cell proliferation; assay: Concanavalin-A-induced T-cell proliferation assay (immunosuppression); assay type: cell-based; details: inhibition of Concanavalin-A-induced T-cell proliferation
Experimental: To determine whether the cycloundecadepsipepide compounds of the present invention have a non-immunosuppression activity, experiments were carried out that compared the dose-dependent inhibition of Concanavalin-A-induced T-cell proliferation (see Table 2).
The method of the assays were performed as described by Dayton et al. (1992. Mol. Pharmacol. 41. 671-676) and Mishell et al. (1980. Cell proliferation in selected methods in cellular immunology, V, XXIX, W.H. Freeman Co., San Francisco, Calif. 153-160).

[7] = target: T1, sodium-taurocholate cotransporting polypeptide (NTCP) (Homo sapiens, UniProt Q14973); assay: NTCP inhibition, taurocholate uptake in CHO cells; assay type: in vitro ADME; details: for NTCP fold Debio 025: IC50 ratio compared to Debio 025; for IC50 / NTCP IC50: probe taurocholate, CHO cells
T1 sequence (Q14973 1-349): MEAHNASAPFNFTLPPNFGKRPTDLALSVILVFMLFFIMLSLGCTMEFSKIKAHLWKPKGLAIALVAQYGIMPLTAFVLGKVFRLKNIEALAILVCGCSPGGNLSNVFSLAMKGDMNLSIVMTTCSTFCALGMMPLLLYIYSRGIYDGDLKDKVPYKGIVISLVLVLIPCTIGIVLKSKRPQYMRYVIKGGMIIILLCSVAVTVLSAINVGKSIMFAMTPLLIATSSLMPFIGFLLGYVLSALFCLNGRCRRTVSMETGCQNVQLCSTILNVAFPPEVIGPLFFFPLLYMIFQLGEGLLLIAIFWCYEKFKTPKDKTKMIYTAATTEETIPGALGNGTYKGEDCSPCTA

SMILES | EC50 [1] [nM] | IC50 [2] [nM] | BSEP fold Debio 025 [2] | MRP2 IC50 [3] | IC50 [4] [nM] | OATP1B fold Debio 025 [4] | CC50 [5] [nM] | IC50 [6] [nM] | NTCP fold Debio 025 [7] | IC50 [7] [nM] | IC50 [3] [nM] | MRP2 fold Debio 025 ([3]; IC50 ratio compared to Debio 025) | NTCP IC50 [7]
C/C=C/C[C@@H](C)[C@@H](O)[C@H]1C(=O)N[C@@H](CC)C(=O)N(C)[C@H](C)C(=O)N(C)[C@@H](C(C)C)C(=O)N[C@@H](CC(C)C)C(=O)N(C)[C@@H](CC(C)C)C(=O)N[C@@H](C)C(=O)O[C@H](C(C)C)C(=O)N(C)[C@@H](CC(C)C)C(=O)N[C@@H](CC(C)C)C(=O)N(C)[C@@H](C(C)C)C(=O)N1C [(Id), cyclo-(MeBmt-Abu-D-MeAla-MeVal-Leu-MeLeu-Ala-D-Hiv-MeLeu-Leu-MeVal)] (cyclo(A[dHiv][NMeL]L[NMeV][MeBmt][Abu][dNMeA][NMeV]L[NMeL])) | 25 | 570 | 0.42 | n.i. | 7900 | 0.05 | 44400 | 1440 | 1.2 | 2500 | – | – | –
C/C=C/C[C@@H](C)[C@@H](O)[C@H]1C(=O)N[C@@H](CC)C(=O)N(C)[C@H](C)C(=O)N(C)[C@@H](C(C)C)C(=O)N[C@@H](C(C)C)C(=O)N(C)[C@@H](C)C(=O)N[C@@H](C)C(=O)O[C@H](C(C)C)C(=O)N(C)[C@@H](CC(C)C)C(=O)N[C@@H](CC(C)C)C(=O)N(C)[C@@H](C(C)C)C(=O)N1C [(Ie), cyclo-(MeBmt-Abu-D-MeAla-MeVal-Val-MeAla-Ala-D-Hiv-MeLeu-Leu-MeVal)] (cyclo(A[dHiv][NMeL]L[NMeV][MeBmt][Abu][dNMeA][NMeV]V[NMeA])) | 70 | 600 | 0.40 | – | 580 | 0.72 | 8300 | 2000 | 0.12 | 26000 | 20000 | 0.73 | –
C/C=C/C[C@@H](C)[C@@H](O)[C@H]1C(=O)N[C@@H](C(C)C)C(=O)N(C)[C@H](C)C(=O)N(C)[C@@H](C(C)C)C(=O)N[C@@H](CC(C)C)C(=O)N(C)[C@@H](CC(C)C)C(=O)NCC(=O)O[C@H](C(C)C)C(=O)N(C)[C@@H](CC(C)C)C(=O)N[C@@H](CC(C)C)C(=O)N(C)[C@@H](C(C)C)C(=O)N1C [(If), cyclo-(MeBmt-Val-D-MeAla-MeVal-Leu-MeLeu-Gly-D-Hiv-MeLeu-Leu-MeVal)] (cyclo(G[dHiv][NMeL]L[NMeV][MeBmt]V[dNMeA][NMeV]L[NMeL])) | 25 | 480 | 0.50 | n.i. | 15000 | 0.03 | 81800 | 7720 | – | – | – | – | n.i.
C/C=C/C[C@@H](C)[C@@H](O)[C@H]1C(=O)N[C@@H](C(C)C)C(=O)N(C)[C@H](C)C(=O)N(CC)[C@@H](C(C)C)C(=O)N[C@@H](CC(C)C)C(=O)N(C)[C@@H](CC(C)C)C(=O)N[C@@H](C)C(=O)O[C@H](C(C)C)C(=O)N(C)[C@@H](CC(C)C)C(=O)N[C@@H](CC(C)C)C(=O)N(C)[C@@H](C(C)C)C(=O)N1C [(Ih), cyclo-(MeBmt-Val-D-MeAla-EtVal-Leu-MeLeu-Ala-D-Hiv-MeLeu-Leu-MeVal)] (cyclo(A[dHiv][NMeL]L[NMeV][MeBmt]V[dNMeA][NEtVal]L[NMeL])) | 22 | 300 | 0.80 | n.i. | 12000 | 0.04 | 20500 | 1740 | – | – | – | – | n.i.
